Experimental data from patent US20220363848A1, “ANTIMICROBIAL MULTILAYER FILM” (Cryovac, LLC, priority 2019, published 2022).

System: microbes of beef purge inoculum
Experiment: Modified film test: total aerobic plate count after contact of inoculum with antimicrobial test film
Format: cell-based
Settings: for Antimicrobial Performance vs. VLDPE Control (percent reduction in microbes), Amide wax alone Erucamide, Test 2: primary additive 10 wt % in Affinity PL 1280G1 C8-VLDPE containing 1664 ppm cis-13-docosenamide
Method: Each of the materials shown in Tables 1 and 2 was compounded into sealant resin, comprised of Affinity PL 1280G, a C8-VLDPE and films were prepared for microbial control testing. The primary additives were tested at 10 wt %. Secondary additives and Cis-13-docosenamide (sold under the trade name Erucamide) were tested as detailed in Table 3.
Test 2: Each of the primary antimicrobial materials in Table 1 was compounded at 10 wt % into sealant resin comprised of Affinity PL 1280G1, a C8-VLDPE containing 1664 ppm of cis-13-docosenamide and films were prepared for microbial control testing.
Tests 3-5: Each of the primary antimicrobial materials in Table 1 was compounded at 10% w/w into sealant resin comprised of Affinity PL 1280G, a C8-VLDPE and 2-3 wt % of the secondary antimicrobials (Table 2) or cis-13-docosenamide were added as detailed in Table 3 and films were prepared for microbial control testing.
Due to the limitations seen in the laboratory with the ISO 22196 test, a modified film test was developed. The test protocol was designed to simulate an actual package environment. […] “Purge” is the liquid that exudes from cut meat or poultry and collects freely in the package. This is typically found in larger packages. The purge liquid can be carefully removed from the packages and used for the following tests. For the tests conducted in this study, beef purge was used. The beef purge is a combination of water, fats, enzymes and meat proteins that drain from the meat. The purge also contains the same bacterial flora as that which contaminates the surface of the meat itself. Thus, this purge could include gram positive bacteria like Lactobacillus species, (Lactic Acid Bacteria), and Listeria species, as well as, gram negative bacteria like E. coli, Campylobacter or Salmonella species.
Antimicrobial films may contain the active ingredient extruded into the surface layer of the film, or coated onto the film. A test method was developed to provide a continuous, uniform coverage of a known amount of the inoculum on the test films.
A 1 inch by 3 inch “tape well” is created on the antimicrobial test film. The “tape well” is crafted by cutting a 1 inch by 3 inch section from a strip of 3 inch wide vinyl tape and applying the tape to the antimicrobial film surface. The test film is secured to a Lexan sheet for stability and handling.
To the well, 0.2 ml of an inoculum is added. The inoculums are either the meat purge or cultures of nutrient broth with E. coli (ATTC #4157 or ATTC #33876) added to the broth. The Escherichia coli is a gram-negative, facultative, anaerobic, rod-shaped, coliform bacterium.
A 1 inch by 3 inch strip of Cryovac brand D-955, a non-barrier film, is placed over the inoculum to provide complete wetting of the test film with the inoculum and to prevent desiccation of the inoculum. The high OTR properties of the D-955 allow growth of the inoculum trapped between the antimicrobial test film and the D-955 film.
Inoculated films are incubated at refrigerated conditions of 40° F. for both 1 and 5 days in a high humidity sealed pouch.
The inoculum is recovered from the well by both adding the inoculum wetted D-955 film over-layment to a distilled water test tube and by swabbing the test film surface twice and placing the swab in the same test tube.
The total aerobic plate count is enumerated using Aerobic Plate Count 3M Petri Film.
Results are reported as log10 CFU/g. The difference in counts between the sample and control is the “delta log CFU/g”. This is mathematically converted to a percent reduction=(1−10^(−delta log CFU/g))*100

[1] = 5 day test, beef purge inoculum, 40° F.

With `CCCCCCCC/C=C\CCCCCCCCCCCC(N)=O` [Erucamide, Cis-13-docosenamide] the “Antimicrobial Performance vs. VLDPE Control (percent reduction in microbes), Amide wax alone Erucamide, Test 2” value [1] was 0%.
With `C[C@H](O)C(=O)[O-].[Na+]` [Purasal S98, Sodium L-lactate] the “Antimicrobial Performance vs. VLDPE Control (percent reduction in microbes), Amide wax alone Erucamide, Test 2” value [1] was 0%, the “Antimicrobial Performance vs. VLDPE Control (percent reduction in microbes), None Control, Test 1” value (primary additive 10 wt % in Affinity PL 1280G C8-VLDPE sealant film, no secondary additive, 5 day test, beef purge inoculum, 40° F.) was 0% and the “Antimicrobial Performance vs. VLDPE Control (percent reduction in microbes), Cleanatis M1 @ 2%, Test 4” value (primary additive 10 wt % in VLDPE film plus 2 wt % Cleanatis M1 (With Amide wax), 5 day test, beef purge inoculum, 40° F.) was 8.8%. For the same compound, the “Antimicrobial Performance vs. VLDPE Control (percent reduction in microbes), Cleanatis M2 @2%, Test 5” value (primary additive 10 wt % in VLDPE film plus 2 wt % Cleanatis M2 (With Amide wax), 5 day test, beef purge inoculum, 40° F.) was 64.5187%, the “Antimicrobial Performance vs. VLDPE Control (percent reduction in microbes), KANCOR CLS @ 2%, Test 3” value (primary additive 10 wt % in VLDPE film plus 2 wt % Kancor OxiKan CLS (With Amide wax), 5 day test, beef purge inoculum, 40° F.) was 92.0567% and the “Percent Reduction in Microbes of Test Samples at Day 5 versus the "Additive Controls", None Control, Test 1” value (primary additive 10 wt % in VLDPE film, control = VLDPE film, Day 5) was 0%. For the same compound, the “Percent Reduction in Microbes of Test Samples at Day 5 versus the "Additive Controls", Amide wax Erucamide, Test 2” value (primary additive 10 wt % in VLDPE with Erucamide, control = VLDPE + Erucamide film, Day 5) was 0%, the “Percent Reduction in Microbes of Test Samples at Day 5 versus the "Additive Controls", Cleanatis M1 @ 2%, Test 4” value (primary additive 10 wt % plus Cleanatis M1 2%, control = VLDPE + Cleanatis M1 film, Day 5) was “Growth” and the “Percent Reduction in Microbes of Test Samples at Day 5 versus the "Additive Controls", Cleanatis M2 @2%, Test 5” value (primary additive 10 wt % plus Cleanatis M2 2%, control = VLDPE + Cleanatis M2 film, Day 5) was “Growth”. The “Percent Reduction in Microbes of Test Samples at Day 5 versus the "Additive Controls", KANCOR CLS @ 2%, Test 3” value (primary additive 10 wt % plus KANCOR CLS 2%, control = VLDPE + KANCOR CLS film, Day 5) was 22.3735%.
